System: NOMO1
Assay: cell viability relative to DMSO control; higher = less cytotoxic
Conditions: 48 h
Procedure, shortened: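 Viability values are per-plate percentages of DMSO wells, with background from cell-free wells. Library compounds in DMSO were pin-dosed, in an 11-point threefold series from 47 μM to 0.79 nM, onto NOMO1 or SEM (500 cells/well) or P12-Ichikawa (1000 cells/well) leukemia cells in 1536-well plates (5 μl). Those cells had been adapted for at least four passages in each medium, and CellTiter-Glo One luminescence was read after 48 h at 37°C.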

[1] = HPLM + 10% dialyzed FBS, 0.000781 µM
[2] = HPLM + 10% dialyzed FBS, 0.00234 µM
[3] = HPLM + 10% dialyzed FBS, 0.00702 µM
[4] = HPLM + 10% dialyzed FBS, 0.0211 µM
[5] = HPLM + 10% dialyzed FBS, 0.0632 µM
[6] = HPLM + 10% dialyzed FBS, 0.19 µM
[7] = HPLM + 10% dialyzed FBS, 0.569 µM
[8] = HPLM + 10% dialyzed FBS, 1.71 µM
[9] = HPLM + 10% dialyzed FBS, 5.12 µM
[10] = HPLM + 10% dialyzed FBS, 15.4 µM
[11] = HPLM + 10% dialyzed FBS, 46.1 µM
[12] = RPMI 5 mM glucose + 10% FBS, 0.000781 µM
[13] = RPMI 5 mM glucose + 10% FBS, 0.00234 µM
[14] = RPMI 5 mM glucose + 10% FBS, 0.00702 µM
[15] = RPMI 5 mM glucose + 10% FBS, 0.0211 µM
[16] = RPMI 5 mM glucose + 10% FBS, 0.0632 µM
[17] = RPMI 5 mM glucose + 10% FBS, 0.19 µM
[18] = RPMI 5 mM glucose + 10% FBS, 0.569 µM
[19] = RPMI 5 mM glucose + 10% FBS, 1.71 µM
[20] = RPMI 5 mM glucose + 10% FBS, 5.12 µM
[21] = RPMI 5 mM glucose + 10% FBS, 15.4 µM
[22] = RPMI 5 mM glucose + 10% FBS, 46.1 µM
[23] = RPMI 5 mM glucose + 10% dialyzed FBS, 0.000781 µM
[24] = RPMI 5 mM glucose + 10% dialyzed FBS, 0.00234 µM
[25] = RPMI 5 mM glucose + 10% dialyzed FBS, 0.00702 µM
[26] = RPMI 5 mM glucose + 10% dialyzed FBS, 0.0211 µM
[27] = RPMI 5 mM glucose + 10% dialyzed FBS, 0.0632 µM
[28] = RPMI 5 mM glucose + 10% dialyzed FBS, 0.19 µM
[29] = RPMI 5 mM glucose + 10% dialyzed FBS, 0.569 µM
[30] = RPMI 5 mM glucose + 10% dialyzed FBS, 1.71 µM
[31] = RPMI 5 mM glucose + 10% dialyzed FBS, 5.12 µM
[32] = RPMI 5 mM glucose + 10% dialyzed FBS, 15.4 µM
[33] = RPMI 5 mM glucose + 10% dialyzed FBS, 46.1 µM

| Structure (SMILES) | cell viability [1] | cell viability [2] | cell viability [3] | cell viability [4] | cell viability [5] | cell viability [6] | cell viability [7] | cell viability [8] | cell viability [9] | cell viability [10] | cell viability [11] | cell viability [12] | cell viability [13] | cell viability [14] | cell viability [15] | cell viability [16] | cell viability [17] | cell viability [18] | cell viability [19] | cell viability [20] | cell viability [21] | cell viability [22] | cell viability [23] | cell viability [24] | cell viability [25] | cell viability [26] | cell viability [27] | cell viability [28] | cell viability [29] | cell viability [30] | cell viability [31] | cell viability [32] | cell viability [33] |
| --- | --- | --- | --- | --- | --- | --- | --- | --- | --- | --- | --- | --- | --- | --- | --- | --- | --- | --- | --- | --- | --- | --- | --- | --- | --- | --- | --- | --- | --- | --- | --- | --- | --- |
| CC(C)(O)CC[C@@H](O)[C@](C)(O)[C@H]1CC[C@@]2(O)C/3=C/C(=O)[C@@H]4C[C@@H](O)[C@@H](O)C[C@]4(C)[C@H]3CC[C@]12C | 111% | 98.6% | 110% | 86.8% | 84.6% | 98.5% | 98% | 103% | 87.4% | 94.9% | 81.7% | 87.9% | 97.3% | 86.9% | 83.8% | 93.2% | 91.9% | 91.2% | 88.6% | 80% | 84.2% | 83.1% | 108% | 110% | 108% | 95.2% | 105% | 91.6% | 105% | 90% | 86.2% | 88.1% | 94.4% |
| CNC(=O)c1ccc(N2C(=S)N(c3cnc(C#N)c(C(F)(F)F)c3)C(=O)C23CCC3)cc1F | 79.6% | 114% | 103% | 115% | 110% | 116% | 102% | 89.8% | 69.7% | 64.8% | 50.2% | 84.9% | 113% | 111% | 104% | 105% | 111% | 96.3% | 83.4% | 79% | 73.2% | 60.2% | 88% | 109% | 107% | 104% | 99.1% | 121% | 123% | 104% | 73.3% | 74% | 74.2% |
| NNCCc1ccccc1 | 109% | 133% | 119% | 131% | 112% | 115% | 108% | 118% | 111% | 60% | 30.4% | 117% | 132% | 122% | 117% | 124% | 117% | 115% | 114% | 114% | 103% | 21.2% | 116% | 116% | 129% | 107% | 125% | 121% | 122% | 109% | 109% | 114% | 75% |
| S=C(NCc1ccc2c(c1)OCO2)N1CCN(c2ncnc3c2oc2ccccc23)CC1 | 110% | 113% | 124% | 104% | 105% | 98.2% | 113% | 105% | 75.7% | 64.1% | 9.67% | 117% | 120% | 116% | 110% | 114% | 111% | 109% | 98.2% | 104% | 80% | 26.2% | 116% | 106% | 119% | 107% | 112% | 107% | 112% | 97.1% | 95.8% | 89% | 48.8% |
| C[C@](O)(CS(=O)(=O)c1ccc(F)cc1)C(=O)Nc1ccc(C#N)c(C(F)(F)F)c1 | 106% | 100% | 111% | 121% | 126% | 128% | 104% | 123% | 115% | 116% | 134% | 103% | 108% | 128% | 140% | 133% | 141% | 134% | 128% | 126% | 133% | 137% | 112% | 119% | 132% | 135% | 127% | 124% | 129% | 131% | 129% | 120% | 131% |
| COc1cc(OC2CCN(C)CC2)ccc1Nc1ncc2c(n1)n(C1CCCC1)c(=O)n2C | 80.9% | 86.8% | 107% | 85.9% | 96.8% | 90.8% | 103% | 108% | 93.6% | 87.7% | 2.59% | 82.7% | 82.5% | 75.4% | 84.8% | 78.1% | 92.8% | 83.2% | 76.5% | 81.1% | 76.9% | 18.4% | 76.6% | 88.9% | 90.4% | 83.6% | 81.2% | 95.2% | 91.6% | 100% | 91.7% | 60.4% | 16.1% |
| CC[C@]12CC[C@H]3[C@@H](CCC/4=C/C(=O)CC[C@H]34)[C@@H]1\C=C/[C@@]2(O)C#C | 118% | 116% | 132% | 133% | 128% | 113% | 137% | 146% | 133% | 138% | 124% | 110% | 120% | 120% | 123% | 122% | 138% | 133% | 121% | 112% | 130% | 139% | 116% | 133% | 122% | 124% | 126% | 111% | 137% | 133% | 138% | 140% | 132% |
| OC(c1cc(C(F)(F)F)nc2c(C(F)(F)F)cccc12)C1CCCCN1 (configuration not stated) | 117% | 124% | 115% | 127% | 146% | 150% | 158% | 142% | 143% | 114% | 8.46% |  |  |  |  |  |  |  |  |  |  |  |  |  |  |  |  |  |  |  |  |  |  |
